Laboratory results from patent publication US20110201016A1, “METHOD FOR DETECTING MODULATOR FOR REGULATING ACTIVITY OF CELLULAR COMPONENT IN CELL” (MEDISCOV INC., priority 2010, published 2011).

Key:
[1] = target: T1, BLK (Homo sapiens, UniProt P51451, G2A); test: Competition reaction with dasatinib-magnetic substance for EGFP-labelled kinase in cells; type: cell-based; conditions: BLK-EGFP in HeLa cells; 10 μM reactive competitor for 30 minutes to 2 hours
T1 construct: the ORF without the stop codon was amplified for each gene by PCR; expressed in transfected cells; host or cells: HeLa

[2] = target: T2, CSK (Homo sapiens, UniProt P41240); test: Binding of dasatinib-magnetic substance to EGFP-labelled kinase in cells (magnetic pattern co-localization); conditions: CSK-EGFP in HeLa cells; dasatinib-biotin coated on streptavidin magnetic substance; magnetic field
[3] = system: ABL2; test: as above; conditions: EGFP-ABL2 in HeLa cells; dasatinib-biotin coated on streptavidin magnetic substance; magnetic field
[4] = target: T3, FGR (Homo sapiens, UniProt P09769, G2A); test: Competition reaction with dasatinib-magnetic substance for EGFP-labelled kinase in cells; conditions: FGR-EGFP in HeLa cells; 10 μM reactive competitor for 30 minutes to 2 hours
[5] = target: T2, CSK; test: as above; conditions: CSK-EGFP in HeLa cells; 10 μM reactive competitor for 30 minutes to 2 hours
[6] = target: T4, KIT (Homo sapiens, UniProt P10721); test: as above; type: cell-based; conditions: KIT-EGFP in HeLa cells; 10 μM reactive competitor for 30 minutes to 2 hours
T4 construct: only the region of the amino acids 545 to 976 was amplified by PCR; expressed in transfected cells; host or cells: HeLa

[7] = target: T5, LYN (Homo sapiens, UniProt P07948, G2A); test: as above; type: cell-based; conditions: LYN-EGFP in HeLa cells; 10 μM reactive competitor for 30 minutes to 2 hours
T5 construct: the ORF without the stop codon was amplified for each gene by PCR; expressed in transfected cells; host or cells: HeLa

[8] = target: T6, MAPK14 (Homo sapiens, UniProt Q16539); test: Binding of dasatinib-magnetic substance to EGFP-labelled kinase in cells (magnetic pattern co-localization); conditions: MAPK14-EGFP in HeLa cells; dasatinib on magnetic substance; no reactive competitor
[9] = target: T7, RIPK2 (Homo sapiens, UniProt O43353); test: as above; type: cell-based; conditions: RIPK2-EGFP in HeLa cells; dasatinib-biotin coated on streptavidin magnetic substance; magnetic field
T7 construct: the ORF without the stop codon was amplified for each gene by PCR; expressed in transfected cells; host or cells: HeLa
Excerpt: (§1) Bioconjug. […] Adv. Mater. […] J. Am. Chem. Soc. 130, 16466].
(§2) J. Am. Chem. Soc. 130, 16466].
(§3) Nature 255: 706]. […] J. Am. Chem. Soc. 130, 16466].
(§4) The result is illustrated in FIG. 2.

[10] = target: T5, LYN; test: as above; type: cell-based; conditions: LYN-EGFP (G2A) in HeLa cells; dasatinib-biotin coated on streptavidin magnetic substance; magnetic field
Excerpt: as §1, §2, §3, §4

[11] = target: T1, BLK; test: as above; type: cell-based; conditions: BLK-EGFP (G2A) in HeLa cells; dasatinib-biotin coated on streptavidin magnetic substance; magnetic field
Excerpt: as §1, §2, §3, §4

[12] = target: T3, FGR; test: as above; conditions: FGR-EGFP (G2A) in HeLa cells; dasatinib-biotin coated on streptavidin magnetic substance; magnetic field
[13] = target: T6, MAPK14; test: Competition reaction with dasatinib-magnetic substance for EGFP-labelled kinase in cells; conditions: MAPK14-EGFP in HeLa cells; 10 μM reactive competitor for 30 minutes to 2 hours
[14] = target: T7, RIPK2; test: as above; type: cell-based; conditions: RIPK2-EGFP in HeLa cells; 10 μM reactive competitor for 30 minutes to 2 hours
[15] = system: ABL2; test: as above; conditions: EGFP-ABL2 in HeLa cells; 10 μM reactive competitor for 30 minutes to 2 hours
[16] = target: T8, SNF1LK (Homo sapiens, UniProt P57059); test: Binding of dasatinib-magnetic substance to EGFP-labelled kinase in cells (magnetic pattern co-localization); type: cell-based; conditions: SNF1LK-EGFP in HeLa cells; dasatinib on magnetic substance; no reactive competitor
T8 construct: the ORF without the stop codon was amplified for each gene by PCR and then cloned into an expression vector; expressed in transfected cells; host or cells: HeLa
Excerpt: as §1, §2, §3

[17] = target: T8, SNF1LK; test: Competition reaction with dasatinib-magnetic substance for EGFP-labelled kinase in cells; type: cell-based; conditions: SNF1LK-EGFP in HeLa cells; 10 μM reactive competitor for 30 minutes to 2 hours

T1 sequence (P51451 whole entry G2A): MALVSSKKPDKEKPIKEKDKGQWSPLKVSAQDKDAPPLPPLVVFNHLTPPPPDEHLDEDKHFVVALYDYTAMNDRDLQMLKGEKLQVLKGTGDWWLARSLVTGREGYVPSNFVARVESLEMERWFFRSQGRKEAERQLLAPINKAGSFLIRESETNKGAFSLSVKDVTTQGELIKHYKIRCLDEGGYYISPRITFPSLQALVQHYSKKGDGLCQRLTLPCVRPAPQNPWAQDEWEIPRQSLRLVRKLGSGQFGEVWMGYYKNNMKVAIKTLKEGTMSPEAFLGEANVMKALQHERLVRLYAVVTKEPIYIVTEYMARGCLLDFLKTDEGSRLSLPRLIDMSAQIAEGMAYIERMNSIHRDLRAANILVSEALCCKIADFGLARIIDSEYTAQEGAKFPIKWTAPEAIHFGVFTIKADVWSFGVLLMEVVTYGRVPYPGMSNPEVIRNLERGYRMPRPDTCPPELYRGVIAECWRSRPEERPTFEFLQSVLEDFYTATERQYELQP
T6 sequence (Q16539 1-360 isoform Q16539-2): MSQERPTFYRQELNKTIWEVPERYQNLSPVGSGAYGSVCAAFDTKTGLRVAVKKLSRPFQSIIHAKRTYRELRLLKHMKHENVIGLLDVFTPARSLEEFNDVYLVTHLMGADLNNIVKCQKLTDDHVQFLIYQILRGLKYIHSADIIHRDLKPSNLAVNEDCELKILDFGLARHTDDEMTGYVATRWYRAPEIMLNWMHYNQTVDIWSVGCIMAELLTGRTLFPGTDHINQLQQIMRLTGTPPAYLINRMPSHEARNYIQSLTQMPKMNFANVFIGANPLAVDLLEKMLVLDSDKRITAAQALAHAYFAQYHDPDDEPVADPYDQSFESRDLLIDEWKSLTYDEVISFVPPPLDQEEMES
T8 sequence (P57059 whole entry): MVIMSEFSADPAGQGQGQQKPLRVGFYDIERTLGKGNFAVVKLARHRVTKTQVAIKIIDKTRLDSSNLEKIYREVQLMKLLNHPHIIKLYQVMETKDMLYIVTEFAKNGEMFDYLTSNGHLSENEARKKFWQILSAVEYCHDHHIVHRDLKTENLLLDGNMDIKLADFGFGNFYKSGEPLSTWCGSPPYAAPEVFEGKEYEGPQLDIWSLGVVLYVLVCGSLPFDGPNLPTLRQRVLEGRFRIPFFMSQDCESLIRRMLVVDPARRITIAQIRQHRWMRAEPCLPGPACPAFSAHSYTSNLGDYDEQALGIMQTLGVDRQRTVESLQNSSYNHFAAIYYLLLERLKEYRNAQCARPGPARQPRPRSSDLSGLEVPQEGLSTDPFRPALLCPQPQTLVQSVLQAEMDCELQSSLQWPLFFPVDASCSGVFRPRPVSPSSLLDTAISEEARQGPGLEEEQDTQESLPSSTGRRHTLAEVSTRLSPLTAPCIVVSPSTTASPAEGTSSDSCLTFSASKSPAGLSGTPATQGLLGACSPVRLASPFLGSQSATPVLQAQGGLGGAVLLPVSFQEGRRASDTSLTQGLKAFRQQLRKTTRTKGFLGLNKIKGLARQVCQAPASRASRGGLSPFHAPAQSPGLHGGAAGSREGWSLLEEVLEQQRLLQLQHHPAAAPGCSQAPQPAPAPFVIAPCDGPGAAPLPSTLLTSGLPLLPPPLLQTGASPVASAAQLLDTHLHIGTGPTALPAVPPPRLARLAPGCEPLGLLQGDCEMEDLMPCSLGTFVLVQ
T5 sequence (P07948 1-491 isoform P07948-2 G2A): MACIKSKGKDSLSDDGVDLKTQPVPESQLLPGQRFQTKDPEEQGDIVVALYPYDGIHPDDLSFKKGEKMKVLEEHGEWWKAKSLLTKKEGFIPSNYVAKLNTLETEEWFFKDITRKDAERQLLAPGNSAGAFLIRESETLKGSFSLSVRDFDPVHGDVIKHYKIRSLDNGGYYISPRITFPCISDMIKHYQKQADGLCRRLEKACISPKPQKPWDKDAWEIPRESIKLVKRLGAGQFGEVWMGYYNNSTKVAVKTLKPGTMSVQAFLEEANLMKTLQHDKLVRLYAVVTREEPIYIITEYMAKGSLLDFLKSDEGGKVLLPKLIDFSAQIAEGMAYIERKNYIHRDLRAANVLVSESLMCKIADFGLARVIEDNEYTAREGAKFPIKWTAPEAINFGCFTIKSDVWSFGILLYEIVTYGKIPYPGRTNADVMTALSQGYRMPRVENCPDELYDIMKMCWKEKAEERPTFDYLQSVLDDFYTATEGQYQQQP
T7 sequence (O43353 whole entry): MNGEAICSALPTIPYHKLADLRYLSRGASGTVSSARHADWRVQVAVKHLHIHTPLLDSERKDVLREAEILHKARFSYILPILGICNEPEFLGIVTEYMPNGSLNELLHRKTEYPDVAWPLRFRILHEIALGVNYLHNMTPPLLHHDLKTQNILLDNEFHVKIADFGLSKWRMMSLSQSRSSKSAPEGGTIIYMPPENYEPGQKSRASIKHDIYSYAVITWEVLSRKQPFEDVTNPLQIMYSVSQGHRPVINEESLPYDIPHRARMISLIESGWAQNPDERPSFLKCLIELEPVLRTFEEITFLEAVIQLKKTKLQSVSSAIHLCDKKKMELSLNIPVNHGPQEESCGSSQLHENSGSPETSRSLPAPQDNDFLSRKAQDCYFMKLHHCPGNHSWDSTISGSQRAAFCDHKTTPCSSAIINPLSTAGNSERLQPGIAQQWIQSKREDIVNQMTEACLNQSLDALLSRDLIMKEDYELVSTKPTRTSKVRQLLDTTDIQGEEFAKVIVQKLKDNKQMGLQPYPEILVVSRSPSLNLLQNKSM
T4 sequence (P10721 545-976): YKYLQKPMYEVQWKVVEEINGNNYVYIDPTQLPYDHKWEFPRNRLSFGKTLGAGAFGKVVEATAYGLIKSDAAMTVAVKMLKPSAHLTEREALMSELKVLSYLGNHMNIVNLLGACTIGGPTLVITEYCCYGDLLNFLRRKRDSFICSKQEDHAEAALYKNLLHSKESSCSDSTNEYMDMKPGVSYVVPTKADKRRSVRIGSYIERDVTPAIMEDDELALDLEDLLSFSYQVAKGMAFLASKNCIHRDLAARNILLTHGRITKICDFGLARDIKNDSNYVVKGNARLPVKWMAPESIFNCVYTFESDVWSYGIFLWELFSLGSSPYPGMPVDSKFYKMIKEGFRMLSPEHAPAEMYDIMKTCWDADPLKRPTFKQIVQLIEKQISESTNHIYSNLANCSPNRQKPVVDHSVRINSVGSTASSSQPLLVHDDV

fluorescent pattern of kinase-EGFP overlapped with magnetization pattern (binding) [8]	fluorescent pattern of kinase-EGFP overlapped with magnetization pattern (binding) [16]	Structure (SMILES)	competition with dasatinib-magnetic substance: fluorescent pattern overlapped with magnetization pattern [1]	fluorescent pattern of kinase-EGFP overlapped with magnetization pattern (binding) [2]	fluorescent pattern of kinase-EGFP overlapped with magnetization pattern (binding) [3]	competition with dasatinib-magnetic substance: fluorescent pattern overlapped with magnetization pattern [4]	competition with dasatinib-magnetic substance: fluorescent pattern overlapped with magnetization pattern [5]	competition with dasatinib-magnetic substance: fluorescent pattern overlapped with magnetization pattern [6]	competition with dasatinib-magnetic substance: fluorescent pattern overlapped with magnetization pattern [7]	fluorescent pattern of kinase-EGFP overlapped with magnetization pattern (binding) [9]	fluorescent pattern of kinase-EGFP overlapped with magnetization pattern (binding) [10]	fluorescent pattern of kinase-EGFP overlapped with magnetization pattern (binding) [11]	fluorescent pattern of kinase-EGFP overlapped with magnetization pattern (binding) [12]	competition with dasatinib-magnetic substance: fluorescent pattern overlapped with magnetization pattern [13]	competition with dasatinib-magnetic substance: fluorescent pattern overlapped with magnetization pattern [14]	competition with dasatinib-magnetic substance: fluorescent pattern overlapped with magnetization pattern [15]	competition with dasatinib-magnetic substance: fluorescent pattern overlapped with magnetization pattern [17]
interacted	interacted	Cc1nc(Nc2ncc(C(=O)Nc3c(C)cccc3Cl)s2)cc(N2CCN(CCO)CC2)n1 [dasatinib, N-(2-chloro-6-methyl-phenyl)-2-(6-(4-(2-hydroxyethyl)-piperazin-1-yl)-2-methylpyrimidin-4-ylamino)thiazole-5-carboxamide]	fluorescent pattern overlapped with an induced magnetization pattern of the magnetic substances was not observed	showed the fluorescent patterns aligned in a magnetized direction	showed the fluorescent patterns aligned in a magnetized direction	fluorescent pattern overlapped with an induced magnetization pattern of the magnetic substances was not observed	fluorescent pattern overlapped with an induced magnetization pattern of the magnetic substances was not observed	fluorescent pattern overlapped with an induced magnetization pattern of the magnetic substances was not observed	fluorescent pattern overlapped with an induced magnetization pattern of the magnetic substances was not observed	showed the fluorescent patterns aligned in a magnetized direction	showed the fluorescent patterns aligned in a magnetized direction	showed the fluorescent patterns aligned in a magnetized direction	showed the fluorescent patterns aligned in a magnetized direction	fluorescent pattern overlapped with an induced magnetization pattern of the magnetic substances was not observed	fluorescent pattern overlapped with an induced magnetization pattern of the magnetic substances was not observed	fluorescent pattern overlapped with an induced magnetization pattern of the magnetic substances was not observed	fluorescent pattern overlapped with an induced magnetization pattern of the magnetic substances was not observed
–	–	Cc1ccc(NC(=O)c2ccc(CN3CCN(C)CC3)cc2)cc1Nc1nccc(-c2cccnc2)n1 [imatinib]	–	–	–	–	–	interacts	–	–	–	–	–	–	–	–	–
